Source: patent publication US20120015925A1, “NOVEL BENZOTHIAZEPINE AND BENZOTHIEPINE COMPOUNDS” (ASAHI KASEI PHARMA CORPORATION, priority 2004, published 2012)

Tests used:
Caco-2 cell = experiment: Gastrointestinal toxicity: cytotoxicity against Caco-2 cell (LDH activity); type: cell-based, human; conditions: for CELL TOXICITY AGAINST Caco2 3 μM / CELL TOXICITY AGAINST Caco2 10 μM / CELL TOXICITY AGAINST Caco2 30 μM: 2 hours, LDH activity in medium relative to cell lysis agent = 100%
Procedure: That is, 10,000 cells/well of Caco-2 cells (purchased from ATCC) were seeded in a 96-well plate [MEM-E medium, 10% FBS (Fetal Bovine Serum), 1% NEAA (Non Essential Amino Acid) solution, supplied from Gibco]. After culturing for 48 hours, the test compound diluted with the medium was added to each well. After 2 hours, 50 μL of the medium was collected, and an LDH activity in the medium was measured using an LDH activity measurement kit (CytoTox96 Non-Radioactive Cytotoxicity Assay, supplied from Promega). Defining the LDH activity of the Caco-2 cells treated with a cell lysis agent as being 100%, the relative activity was calculated as a index of the cytotoxicity.

human IBAT = target: T1, human IBAT (Homo sapiens, UniProt Q12908); experiment: In vitro assay using Cos 7 cells, transiently expressed human IBAT; type: cell-based; conditions: [3H]-taurocholate 8 μM uptake, 37° C., 60 minutes
T1 sequence (Q12908 1-348): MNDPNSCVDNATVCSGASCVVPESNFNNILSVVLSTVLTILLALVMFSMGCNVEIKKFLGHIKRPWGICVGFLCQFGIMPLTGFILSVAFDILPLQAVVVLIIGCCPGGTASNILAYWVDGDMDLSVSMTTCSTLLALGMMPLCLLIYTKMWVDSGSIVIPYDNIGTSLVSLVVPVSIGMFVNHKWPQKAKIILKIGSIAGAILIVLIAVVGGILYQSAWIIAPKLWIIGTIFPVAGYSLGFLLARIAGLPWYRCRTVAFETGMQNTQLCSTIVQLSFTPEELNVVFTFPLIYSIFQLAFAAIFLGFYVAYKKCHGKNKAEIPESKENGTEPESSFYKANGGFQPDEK
Procedure: In the present Test Example, an in vitro assay of compounds using Cos 7 cells as to inhibitory activity on transiently expressed human IBAT or rat IBAT transporter was performed according to the method described in Am. J. Physiol., 274, G157-169.
That is, […] cells/well of Cos 7 cells were seeded in a 24-well plate, and after one day, the cells were transfected with 0.3 μg/well of cDNA of human IBAT or rat IBAT using FuGENE6 (supplied from Roche). After culturing for one day after the transfection, the cells were washed once with the assay buffer, i.e., Hanks buffer containing 25 mM glucose and 10 mM HEPES (pH 7.4). The assay buffer was then replaced with the assay buffer containing the test compound. [^3H]-Taurocholate at a final concentration of 8 μM was added thereto and incubated at 37° C. for 60 minutes so that [^3H]-taurocholate was taken into Cos 7 cells by the action of human IBAT or rat IBAT. The cells were washed twice with the assay buffer containing 1 mM taurocholate, and subsequently lysed with 0.2 M NaOH to stop the reaction. The cell lysate was added to 4 mL of liquid scintillation cocktail, which was then thoroughly vortexed. Then the radioactivity was measured using the liquid scintillation counter.

rats dosed cholic acid = experiment: Lowering effect on bile acid concentrations in portal vein blood in rats dosed cholic acid; type: in vivo, rat
Procedure: In the present Test Example, a lowering effect on bile acid concentrations in portal vein blood in rats dosed cholic acid was evaluated according to the method described in Jpn. Pharmacol. Ther., Vol. 24 Supplement, 1996, 103(S-577)-110(S-584).
That is, SD (IGS) strain male rats at 7 to 9 weeks of age were fasted one day before the administration date. […] The blood was collected from the portal vein 2 hours after the forced oral administration, and a total bile acid value in serum was measured to examine the effect of the test compound (n=6). As a control, another group (n=6) merely received cholic acid (200 mg/kg), to which the same procedure was applied. The cholic acid value was measured using the commercially available kit (brand name: Total Bile Acid-Test Wako, supplied form Wako Pure Chemical Industries). Defining the value in the control group to which no test compound had been administered as being 100%, a reduction rate (%) of the bile acid value when a certain amount of the test compound had been administered was calculated.

[1] = 0.1 mg/kg oral with cholic acid 200 mg/kg, portal vein serum total bile acid 2 hours after, control = 100%, surfactant HCO-60 (##)
[2] = 0.1 mg/kg oral, surfactant Tween 20 0.05%, cholic acid 200 mg/kg, portal vein blood 2 hours after administration

| Structure (SMILES) | CELL TOXICITY AGAINST Caco2 3 μM (Caco-2 cell) [%] | CELL TOXICITY AGAINST Caco2 10 μM (Caco-2 cell) [%] | CELL TOXICITY AGAINST Caco2 30 μM (Caco-2 cell) [%] | IC50 (human IBAT) [nM] | further results |
| --- | --- | --- | --- | --- | --- |
| CCCCC1(CCCC)CS(=O)(=O)c2ccc(N(C)C)cc2C(c2cccc(NC(=S)Nc3ccc(C[N+](C)(C)CCCC)cc3)c2)N1.[Br-] (racemic) [EXAMPLE 3409] | <1 | <1 | <1 | 45 | BILE ACID REDUCTION RATE (%) IN RAT MODEL WITH CHOLIC ACID LOADING (rats dosed cholic acid; [1]): 28% |
| CCCCC1(CCCC)CS(=O)(=O)c2ccc(N(C)C)cc2C(c2cccc(NC(=S)Nc3ccc(C[N+](C)(C)CCOCCO)cc3)c2)N1.[Br-] (racemic) [EXAMPLE 3475] |  |  |  |  | BILE ACID REDUCTION RATE (%) IN RAT MODEL WITH CHOLIC ACID LOADING (rats dosed cholic acid; [1]): 19% |
| CCCCCC1(CCCCC)CS(=O)(=O)c2ccc(N(C)C)cc2C(c2cccc(NC(=S)Nc3ccc(C[N+]45CCC(CC4)CC5)cc3)c2)N1.[Br-] (racemic) [EXAMPLE 5735] | <1 | <1 | <1 |  |  |
| CCCCCC1(CCCCC)CS(=O)(=O)c2ccc(N(C)C)cc2C(c2cccc(NC(=S)Nc3ccc(CC[N+](C)(C)Cc4ccccc4)cc3)c2)N1.[Br-] (racemic) [EXAMPLE 5856] | <1 | <1 | <1 |  |  |
| CCCCCC1(CCCCC)CS(=O)(=O)c2ccc(N(C)C)cc2C(c2cccc(NC(=S)Nc3ccc(CC[N+]45CCC(CC4)CC5)cc3)c2)N1.[Br-] (racemic) [EXAMPLE 5857] | <1 | <1 | <1 |  |  |
| CCCCC1(CCCC)CS(=O)(=O)c2ccc(N(C)C)cc2C(c2ccc(OCc3ccc(C[N+]45CCN(CC4)CC5)cc3)cc2)N1.[Cl-] (stereo not drawn) [Comparative Example, 1-{4-[4-(3,3-dibutyl-7-dimethylamino-1,1-dioxo-2,3,4,5-tetrahydro-1,4-benzothiazepine-5-yl)phenoxymethyl]benzyl}-4-aza-1-azoniabicyclo[2.2.2]octane chloride, reference compound] |  |  |  |  | cytotoxicity to the Caco-2 cell (Caco-2 cell; LDH activity in medium after 2 hours): exhibited the cytotoxicity to the small intestine epithelial cell line at low concentrations |
| CCCCC1(CCCC)CS(=O)(=O)c2ccc(N(C)C)cc2C(c2cccc(NC(=S)NCCC[N+](C)(C)Cc3ccccc3)c2)N1.[Br-] (stereo not drawn) [EXAMPLE 425] |  |  |  | 170 | BILE ACID REDUCTION RATE (%) IN RAT MODEL WITH CHOLIC ACID LOADING (rats dosed cholic acid; [2]): 21% |
| CCCCC1(CCCC)CS(=O)(=O)c2ccc(N(C)C)cc2C(c2cccc(NC(=S)NCCCC[N+](C)(C)Cc3ccccc3)c2)N1.[Br-] (stereo not drawn) [EXAMPLE 801] |  |  |  |  | BILE ACID REDUCTION RATE (%) IN RAT MODEL WITH CHOLIC ACID LOADING (rats dosed cholic acid; 0.1 mg/kg oral, surfactant HCO-60 0.1%, cholic acid 200 mg/kg, portal vein blood 2 hours after administration): 33% |
| CCCCC1(CCCC)CS(=O)(=O)c2ccc(N(C)C)cc2C(c2cccc(NC(=S)Nc3ccc(C[N+]45CCN(CC4)CC5)cc3)c2)N1.[Br-] (stereo not drawn) [EXAMPLE 3705] | <1 | <1 | <1 | 54 |  |
| CCCCC1(CCCC)CS(=O)(=O)c2ccc(N(C)C)cc2C(c2cccc(NC(=S)Nc3ccc(C[n+]4ccc(C)cc4)cc3)c2)N1.[Br-] (stereo not drawn) [EXAMPLE 3709] | <1 | <1 | <1 | 49 |  |
| CCCCc1ccc[n+](Cc2ccc(NC(=S)Nc3cccc(C4NC(CCCC)(CCCC)CS(=O)(=O)c5ccc(N(C)C)cc54)c3)cc2)c1.[Br-] (stereo not drawn) [EXAMPLE 3723] | <1 | <1 | <1 | 25 |  |
| CCCCC1(CCCC)CS(=O)(=O)c2ccc(N(C)C)cc2C(c2cccc(NC(=S)Nc3ccc(C[n+]4cccc(CC#N)c4)cc3)c2)N1.[Br-] (stereo not drawn) [EXAMPLE 3759] | <1 | <1 | <1 |  | BILE ACID REDUCTION RATE (%) IN RAT MODEL WITH CHOLIC ACID LOADING (rats dosed cholic acid; 0.3 mg/kg oral with cholic acid 200 mg/kg, portal vein serum total bile acid 2 hours after, control = 100%, surfactant HCO-60 (##)): 36% |
| CCCCC1(CCCC)CS(=O)(=O)c2ccc(N(C)C)cc2C(c2cccc(NC(=S)Nc3ccccc3C[N+]34CCC(CC3)CC4)c2)N1.[Br-] (stereo not drawn) [EXAMPLE 4905] |  |  |  |  | BILE ACID REDUCTION RATE (%) IN RAT MODEL WITH CHOLIC ACID LOADING (rats dosed cholic acid; [1]): 28% |
| CCCCCC1(CCCCC)CS(=O)(=O)c2ccc(N(C)C)cc2C(c2cccc(NC(=S)Nc3ccc(C[N+](C)(C)Cc4ccccc4)cc3)c2)N1.[Br-] (stereo not drawn) [EXAMPLE 5480] | <1 | <1 | <1 |  |  |
| CCCCC1(CCCC)CS(=O)(=O)c2ccc(N(C)C)cc2C(c2cccc(NC(=S)Nc3ccc(C[N+]45CCC(c6ccccc6)(CC4)CC5)cc3C)c2)N1.[Br-] (stereo not drawn) [EXAMPLE P340] |  | <1 | <1 | 28 |  |
| CCCCC1(CCCC)CS(=O)(=O)c2ccc(N(C)C)cc2C(c2cccc(NC(=S)Nc3ccc(C[N+]45CCC(c6ccccc6)(CC4)CC5)cc3Cl)c2)N1.[Br-] (stereo not drawn) [EXAMPLE P344] |  | <1 | <1 | 19 |  |
| CCCCC1(CCCC)CS(=O)(=O)c2ccc(N(C)C)cc2C(c2cccc(NC(=S)Nc3ccc(C[N+]45CCC(c6ccccc6)(CC4)CC5)c(Cl)c3)c2)N1.[Br-] (stereo not drawn) [EXAMPLE P345] |  | <1 | <1 | 23 |  |
| CCCCC1(CCCC)CS(=O)(=O)c2ccc(N(C)C)cc2C(c2cccc(NC(=S)Nc3ccc(C[N+]45CCC(c6ccccc6)(CC4)CC5)c(Br)c3)c2)N1.[Br-] (stereo not drawn) [EXAMPLE P347] |  | <1 | <1 | 24 |  |
| CCCCC1(CCCC)CS(=O)(=O)c2ccc(N(C)C)cc2C(c2cccc(NC(=S)Nc3ccc(C[N+]45CCC(c6ccccc6)(CC4)CC5)c(C(F)(F)F)c3)c2)N1.[Br-] (stereo not drawn) [EXAMPLE P348] |  | <1 | <1 | 22 |  |
| CCCCC1(CCCC)CS(=O)(=O)c2ccc(N(C)C)cc2C(c2cccc(NC(=S)NCCC[N+]34CCC(CC3)CC4)c2)N1.[Br-] (stereo not drawn) [Example 9, 1-(3-{3-[3-(3,3-dibutyl-7-dimethylamino-1,1-dioxo-2,3,4,5-tetrahydro-1,4-benzothiazepine-5-yl)phenyl]thioureido}propyl)-1-azoniabicyclo[2.2.2]octane bromide] |  |  |  |  | BILE ACID REDUCTION RATE (%) IN RAT MODEL WITH CHOLIC ACID LOADING (rats dosed cholic acid; [2]): 13% |
| CCCCC1(CCCC)CS(=O)(=O)c2ccc(N(C)C)cc2C(c2ccc(NC(=S)Nc3ccc(C[N+](C)(C)Cc4ccccc4)cc3)cc2)N1.[Br-] (stereo not drawn) [Example 5405, Benzyl-(4-{3-[4-(3,3-dibutyl-7-dimethylamino-1,1-dioxo-2,3,4,5-tetrahydro-1,4-benzothiazepine-5-yl)phenyl]thioureido}benzyl)dimethylammonium bromide] |  |  |  |  | BILE ACID REDUCTION RATE (%) IN RAT MODEL WITH CHOLIC ACID LOADING (rats dosed cholic acid; po, 0.1 mg/kg, 2 h): 16% |
| CCCCC1(CCCC)CS(=O)(=O)c2ccc(N(C)C)cc2C(c2ccc(NC(=S)Nc3cccc(C[N+]45CCC(CC4)CC5)c3)cc2)N1.[Br-] (stereo not drawn) [Example 5406, 1-(3-{3-[4-(3,3-dibutyl-7-dimethylamino-1,1-dioxo-2,3,4,5-tetrahydro-1,4-benzothiazepine-5-yl)phenyl]thioureido}benzyl)-1-azoniabicyclo[2.2.2]octane bromide] |  |  |  |  | BILE ACID REDUCTION RATE (%) IN RAT MODEL WITH CHOLIC ACID LOADING (rats dosed cholic acid; po, 0.1 mg/kg, 2 h): 15% |
